Measured values as given in US20110021471A1, “REDUCING Abeta42 LEVELS AND Abeta AGGREGATION” (priority 2007, published 2011).
Where two headings read alike, the source gives them in different places.

Columns and labels:
APP-CTF = target: T1, APP-CTF (Homo sapiens, UniProt P05067); assay: Photoaffinity labelling of APP and APP CTF in H4 cell membrane fractions and competition; assay type: binding; conditions: for competition of APP-CTF labeling by Fen-B and Flurbi-BpB: photoprobe 25 μM, competitor 200 μM
T1 construct: this protein was designated α-secretase-derived APP CTF (CTF83) on the basis of molecular weight; expressed in transfected cells
Method: Photoaffinity labelling. All experiments used the following general protocol. Samples (recombinant or synthetic peptides, cell lysates and membrane preparations) were exposed in borosilicate test tubes to ultraviolet light (350 nm) in a Rayonet Photoreactor R100 (RPR-3500 lamps, Southern New England Ultra Violet Company) in a cold room (4° C.) for 30 minutes or as otherwise noted. Crosslinked samples were analyzed by ELISA for biotin incorporation, or analyzed directly by SDS-PAGE (Criterion-XT, Bio-Rad), or after precipitation with streptavidin ultralink plus beads (Pierce). After immunblotting, proteins were detected using chemiluminesence (ECL Plus, GEHealthcare) or near-infrared fluorescence (LiCor Odyssey). Full-length APP and APP CTFs (CTF83, CTF99) were detected with CT20, a rabbit polyclonal antibody against the C-terminus of APP. Biotin was detected with an affinity-purified rabbit polyclonal antibody (Bethyl). Cell-based screens for amyloid-β modulation.

[1] = target: amyloid-β peptides (Aβ1-40, Aβ1-36, Aβ1-28, Flag-Aβ25-36) (Homo sapiens, UniProt P05067); assay: Photoaffinity labelling of amyloid-β peptides; assay type: binding
Method: (§1) FIG. 1. […] The top panel is for anti-biotin staining; the middle panel is for anti-FLAG staining; and the bottom panel is an overlay of anti-biotin (red and anti-Flag green, LiCor Odyssey imaging). (E) Same samples as in D, but analyzed using an ELISA. Following crosslinking, C100Flag and N100 Flag were captured using anti-FLAG plate, and biotin incorporation was measured using streptavidin-HRP. […] Fen-B (50 μM) was crosslinked to Aβ (10 μM). Biotin labeling was measured following capture with an anti-Aβ1-16 antibody and detection with streptavidin-HRP.
(§2) Photoaffinity labelling. All experiments used the following general protocol. Samples (recombinant or synthetic peptides, cell lysates and membrane preparations) were exposed in borosilicate test tubes to ultraviolet light (350 nm) in a Rayonet Photoreactor R100 (RPR-3500 lamps, Southern New England Ultra Violet Company) in a cold room (4° C.) for 30 minutes or as otherwise noted. Crosslinked samples were analyzed by ELISA for biotin incorporation, or analyzed directly by SDS-PAGE (Criterion-XT, Bio-Rad), or after precipitation with streptavidin ultralink plus beads (Pierce). After immunblotting, proteins were detected using chemiluminesence (ECL Plus, GEHealthcare) or near-infrared fluorescence (LiCor Odyssey). Full-length APP and APP CTFs (CTF83, CTF99) were detected with CT20, a rabbit polyclonal antibody against the C-terminus of APP. Biotin was detected with an affinity-purified rabbit polyclonal antibody (Bethyl). Cell-based screens for amyloid-β modulation. Human H4 neuroglioma cells (American Type Culture Collection, ATCC) expressing wild-type APP695 protein or CTF105 fused to secreted alkaline phosphatase which is efficiently processed to APP CTFs (CTF83, CTF99) and produce high levels of amyloid-β, were used for the cell-based screens as previously described. Cells were incubated for 5-6 hours in the presence of the various compounds in Opti-Mem culture medium containing 1% fetal bovine serum. Compounds were dissolved in dimethylsulphoxide (DMSO; 0.5% final concentration) and diluted 200-fold. Media was analyzed for various amyloid-β species (40, 42 and total) using ELISAs as described herein. The EC50 values for changes in amyloid-β species were calculated by fitting sigmoid dose-response curves using nonlinear regression in Prism (GraphPad) and are shown as values±s.e.m. Statistical analysis. Data are presented as either percentage control or mean±s.e.m. Results were analyzed using Prism (Graph Pad) with t-tests or one-way analysis of variance analyses (ANOVAs) with Dunnett's post-hoc correction for comparison of multiple samples to a control. Statistical significance is shown as P,0.05 (one asterisk), P,0.01 (two asterisks) or P,0.001 (three asterisks).
Because the putative binding region of GSMs is also found in full-length APP, labeling of both APP fragments in cells was assayed.

H4Bri-C99 (CTF-3) = system: H4Bri-C99 (CTF-3)
Method: FIG. 6. […] Parent GSMs and biotin tagged photoactivatable GSMs were evaluated for their effects on Aβ secreted from H4Bri-C99 (CTF-3). Cells were treated with compounds for 6 hours and Aβ measured by ELISA. […] Changes in Aβ (percent control)±s.e.m., n=3.
as §2

APP(C100)-Flag = target: T2, APP(C100)-Flag (Homo sapiens, UniProt P05067); assay: Photoaffinity labelling of APP(C100)-Flag and competition; assay type: binding; conditions: for competition of Fen-B labeling of C100Flag: Fen-B 10 μM, C100Flag 1 μM, competitor 100 μM
T2 construct: APP(C100)-Flag, comprising the 99 C-terminal residues of APP plus a methionine at the N-terminus; added methionine (N)
Method: as §1, §2
The ability of a purified, recombinant Flag-tagged γ-secretase substrate derived from APP (APP(C100)-Flag, comprising the 99 C-terminal residues of APP plus a methionine at the N-terminus) to be labeled by Fen-B and Flurbi-BpB was tested.

[2] = system: Human H4 neuroglioma cells expressing wild-type APP695 protein or CTF105; assay: Cell-based screens for amyloid-β modulation (H4 cells, ELISA); conditions: for Aβ42 levels: H4 cells expressing APP
Source text: Photoaffinity labelling. All experiments used the following general protocol. […] Cell-based screens for amyloid-β modulation. […] Statistical analysis.

H4 APPwt cells = assay: Immunoprecipitation-mass spectrometry of media from H4 APPwt cells; assay type: cell-based, human
Method: FIG. 14. Amyloid binding compounds alter the cleavage of Aβ similar to other established γ-secretase modulators Immunoprecipitation-mass spectrometry studies were conducted on media from H4 APPwt cells grown in the presence of test compounds for 16 hours. Conditions were: control (DMSO, 0.5%), sulindac sulfide (SS; 25 μM), chrysamine g (CG; 25 μM), and X-34 (25 μM). SS was included as a control GSM known to reduce Aβ42 and increase Aβ38. Spectra shown are representative of two experiments with 2-3 replicates each. Identified Aβ peptides based on calculated mass (m/z) are indicated above the peaks.

γ-secretase = γ-secretase (Homo sapiens, UniProt P49768); assay: Cell-free in vitro γ-secretase assay; assay type: biochemical; conditions: for Aβ40 in cell-free γ-secretase assay / total Aβ production in cell-free γ-secretase assay: increasing doses
Method: FIG. 5. Fenofibrate-Biotin (Fen-B) is an Aβ42 raising GSM that labels cell-derived APP-CTF. (A) The effects of fenofibrate and fenofibrate-biotin (Fen-B) on Aβ production were investigated in a cell-free in vitro γ-secretase assay performed as described in the methods. […] Percent control Aβ species±s.e.m., n=2. (B) Fen-B labels APP-CTFs from cells lysates. CHAPSO solubilized membrane fractions from H4 APP-CTF-105-AP cells were irradiated (350 nm) in the presence of Fen-B (50 μM) for 30 minutes. Biotinylated material was precipitated with streptavidin overnight (SAv). Beads were washed (3×) and then incubated with XT sample buffer, heated to 95° C., run on 12% Criterion XT gels, and transferred to nitrocellulose membranes. Blots were probed for biotin (Bethyl) and APP (CT20). Excess drug (Fen-B) and unlableled APP-CTF is detected in the flow-through from the beads (unbound lane). Biotin bound to streptavdin (SAv) is detected by the anti-biotin antibody. APP-CTF-83 is pulled down in lane 2 and is reactive with anti-biotin and anti-APP (CT20).
Congo red (CR) and chrysamine G (CG), two of the most well characterized amyloid-β dyes, act as GSMs in cell-free γ-secretase assays.

T2 sequence (P05067 672-770 limits assumed): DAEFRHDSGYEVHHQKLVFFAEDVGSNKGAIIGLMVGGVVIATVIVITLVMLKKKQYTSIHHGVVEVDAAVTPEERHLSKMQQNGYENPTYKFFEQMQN
T1 sequence (P05067 688-770 limits assumed): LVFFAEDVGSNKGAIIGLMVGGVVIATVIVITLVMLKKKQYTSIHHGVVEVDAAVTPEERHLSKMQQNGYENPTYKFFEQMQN

CC(C(=O)O)c1ccc(-c2ccc(NC(=O)COc3ccc(C(=O)c4ccc(OCC(=O)NCCNC(=O)CCCC[C@H]5SC[C@H]6NC(=O)N[C@H]65)cc4)cc3)cc2)c(F)c1 (stereo in doubt) [Flurbi-BpB, 2-(2-fluoro-4′-(2-(4-(4-(2-oxo-2-(2-(5-((3aR,4R,6aS)-2-oxohexahydro-1H-thieno[3,4-d]imidazol-4 yl)pentanamido)ethylamino)ethoxy)benzoyl)phenoxy)acetamido)biphenyl-4-yl)propanoic acid]
labeling of full-length APP and APP CTFs (APP-CTF; microsomal membrane fractions from H4 cells expressing wild-type APP): labeled full-length APP and APP CTFs
labeling of Aβ1-36 [1]: labeled
labeling of Flag-tagged Aβ25-36 [1]: preferentially label
Aβ42 (direction of change) (H4Bri-C99 (CTF-3); 6 hours): lowered Aβ42
labeling of APP(C100)-Flag (APP(C100)-Flag): label a recombinant APP c-secretase substrate (APP(C100)-Flag) with similar potency

O=C(O)CCCC[C@@H]1SC[C@@H]2NC(=O)N[C@@H]21 [Biotin]
Aβ levels (H4Bri-C99 (CTF-3); 6 hours): no effect

O=C(CCCC[C@H]1SC[C@H]2NC(=O)N[C@H]21)NCCNC(=O)COc1ccc(C(=O)c2ccccc2)cc1 [BpB, N-(2-(2-(4-benzoylphenoxy)acetamido)ethyl)-5-((3aR,4R,6aS)-2-oxohexahydro-1Hthieno[3,4-d]imidazol-4-yl)pentanamide]
labeling of Aβ1-36 [1]: minor labelling
Aβ42 (direction of change) (H4Bri-C99 (CTF-3); 6 hours): increased Aβ42

O=C(O)c1cc(/N=N/c2ccc(-c3ccc(/N=N/c4ccc(O)c(C(=O)O)c4)cc3)cc2)ccc1O [Chrysamine G]
Aβ42 levels [2]: decrease
shorter amyloid-β (IP-MS) (H4 APPwt cells): increased amounts of shorter amyloid-β
Aβ33 levels (IP-MS) (H4 APPwt cells; 25 μM, 16 hours): raise Aβ33 levels more effectively than SS
levels of Aβ42 (IP-MS) (H4 APPwt cells; 25 μM, 16 hours): consistently decrease levels of Aβ42
Aβ42 in cell-free γ-secretase assay (γ-secretase): lowered Aβ42 selectively
Aβ40 in cell-free γ-secretase assay (γ-secretase): lowered Aβ40 at higher doses
total Aβ production in cell-free γ-secretase assay (γ-secretase): without decreasing total Aβ production
Aβ42 in cell-free γ-secretase assay (γ-secretase; listed as CG): lowered Aβ42 levels

Nc1c(/N=N/c2ccc(-c3ccc(/N=N/c4cc(S(=O)(=O)O)c5ccccc5c4N)cc3)cc2)cc(S(=O)(=O)O)c2ccccc12 [Congo red]
Aβ42 in cell-free γ-secretase assay (γ-secretase): lowered Aβ42 selectively
total Aβ production in cell-free γ-secretase assay (γ-secretase): without decreasing total Aβ production
Aβ42 in cell-free γ-secretase assay (γ-secretase; listed as CR): lowered Aβ42 levels

CC(=O)Oc1ccccc1C(=O)O [aspirin]
competition of Fen-B labeling of C100Flag (APP(C100)-Flag): did not compete

O=C(c1ccccc1)c1ccccc1 [benzophenone]
Aβ42 (direction of change) (H4Bri-C99 (CTF-3); 6 hours): increased Aβ42

CC(C)OC(=O)C(C)(C)Oc1ccc(C(=O)c2ccc(Cl)cc2)cc1 [fenofibrate]
Aβ42 increase (H4Bri-C99 (CTF-3); 33 μM, 6 hours): 300%
Toxicity, based on cell morphology and XTT assay (H4Bri-C99 (CTF-3); human, 6 h): noted at higher concentrations (150, 200 μM)

COc1ccc2cc([C@H](C)C(=O)O)ccc2c1 [naproxen]
competition of Fen-B labeling of C100Flag (APP(C100)-Flag): did not compete

CSc1ccc(/C=C2/C(C)=C(CC(=O)O)c3cc(F)ccc32)cc1 [sulindac sulfide]
competition of APP-CTF labeling by Fen-B and Flurbi-BpB (APP-CTF): decreases labeling of APP-CTF
competition of FL-APP and APP CTF labeling by Fen-B and Flurbi-BpB (APP-CTF; photoprobes 50 μM, data not shown): prevents labeling of FL-APP and APP CTF
levels of Aβ42 (IP-MS) (H4 APPwt cells; 25 μM, 16 hours): consistently decrease levels of Aβ42
Aβ42 in cell-free γ-secretase assay (γ-secretase): lowered Aβ42 levels
Aβ40 in cell-free γ-secretase assay (γ-secretase): lowered Aβ40 at higher doses
total Aβ production in cell-free γ-secretase assay (γ-secretase): without decreasing total Aβ production

CC1=C(CC(=O)O)c2cc(F)ccc2/C1=C\c1ccc(S(C)(=O)=O)cc1 [sulindac sulfone]
competition of Fen-B labeling of C100Flag (APP(C100)-Flag): not

Aβ28-36: synthetic peptide of the putative GSM binding region (KGAIIGLMV; Amyloid-beta protein 42; UniProt P05067 699-707, looked up, fragment)
competition of APP-CTF labeling by Fen-B and Flurbi-BpB (APP-CTF): decreases labeling of APP-CTF
competition for labeling of FLAG-Aβ-25-36 by Fen-B or Flurbi-BpB ([1]; competitor 100 μM, FLAG-Aβ-25-36 10 μM): competes

NH2-FEGKF-CONH2 [I1]
total amyloid-β amounts [2]: without lowering total amyloid-β amounts
Aβ42 levels [2]: elevated Aβ42 production
